From ChEMBL document CHEMBL1201862, “PubChem BioAssay data set” (2004) come the findings set out here.

Common to all, as to assay: DTP human tumour cell line panel, 48 h
Assay [1] relates to HCT-116.
For assay [2], the system named is RPMI-8226.
For assay [3], the system named is HCC 2998.
Assay [4] deals with Malme-3M.
Assay [5] has as its system SW-620.
Assay [6] relates to UO-31.
The test system of assay [7] is SF-539.
The test system of assay [8] is RXF 393.
The test system of assay [9] is OVCAR-3.
The subject of assay [10] is LOX IMVI.
For assay [11], the system named is A549.
Assay [12] relates to HOP-62.
Assay [13] deals with HL-60.
For assay [14], the system named is SK-MEL-28.
Assay [15] concerns OVCAR-4.
Assay [16] deals with SK-MEL-5.

Structures are written as SMILES.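 Assay format: 96-well plates, 48-hour exposure. GI50 is the concentration that inhibits growth by half.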 Activity calls are given as the source filed them. No stated cut-off is given here; in the data, active = GI50 up to about 1.1 µM and inactive = higher.

`Cc1nn(C)c(=S)n(C)c1=O`: the GI50 in assay [1] was 0.416 µM (active); in assay [2] it was 0.556 µM (active); in assay [3] it was 4.1 µM (inactive); in [4], 2.89 µM (inactive); in assay [5] it was 1.79 µM (inactive); in assay [6], 0.229 µM (active). For the same compound, the GI50 is 0.83 µM (active) in assay [7]; 0.498 µM (active) in assay [8]; 4.19 µM (inactive) in [9]; 1.79 µM (inactive) in assay [10]; 0.439 µM (active) in assay [11]; 1.81 µM (inactive) in assay [12]. Further, the GI50 in [13] is 1.31 µM (inactive); in [14] it was 0.571 µM (active); in [15] it was 5.83 µM (inactive).

Turning to `N/N=C(/Cc1nc2ccc(C(=O)c3ccccc3)cc2nc1O)C(=O)Nc1ccc([N+](=O)[O-])cc1[N+](=O)[O-]`, the GI50 was > 10 µM (inactive) in assay [1]; > 10 µM (inactive) in [2]; > 10 µM (inactive) in [3]; 86.7 µM (inactive) in assay [16]; > 100 µM (inactive) in [4]; > 100 µM (inactive) in assay [5]. In addition, the GI50 in assay [6] was 68.2 µM (inactive); in [7] it was > 100 µM (inactive); in assay [8] it was > 100 µM (inactive); in [9], > 10 µM (inactive); in assay [10], > 10 µM (inactive); in assay [11], > 10 µM (inactive). The GI50 in assay [13] was > 10 µM (inactive); in [14], > 10 µM (inactive); in [15] it was 27.3 µM (inactive).

For the compound `O=[N+]([O-])c1cc(I)cc(/C=N/NS(=O)(=O)c2ccc(Cl)cc2)c1O`, the GI50 is 21.2 µM (inactive) in assay [1]; 25.4 µM (inactive) in [2]; 22.1 µM (inactive) in [3]; 18 µM (inactive) in assay [16]; 22 µM (inactive) in assay [4]; 27.6 µM (inactive) in assay [5]. The GI50 in assay [6] was 20.1 µM (inactive); in assay [7] it was 23 µM (inactive); in assay [8], 23.4 µM (inactive); in assay [9], 19.1 µM (inactive); in assay [10] it was 19.8 µM (inactive); in assay [11], 35.8 µM (inactive). The GI50 in [12] was 25.6 µM (inactive); in [13] it was 27.7 µM (inactive); in [14], 27.7 µM (inactive); in assay [15] it was 30.5 µM (inactive).

In the case of `c1nc2cscc2c2cscc12`, the GI50 in assay [1], in assay [2], in assay [3], in [4], in assay [5] and in [6] was > 100 µM (inactive) each time. Further, the GI50 in assay [7], in assay [8], in assay [9], in assay [10], in [11] and in assay [12] was > 100 µM (inactive) throughout. Further, the GI50 in [13], in [14] and in assay [15] was > 100 µM (inactive) in each case.

Consider `CC1(c2cccc3ccccc23)OC(=O)c2ccccc21` (configuration not stated), for which the GI50 was 16.9 µM (inactive) in assay [1]; 19.6 µM (inactive) in [2]; 15.7 µM (inactive) in assay [3]; 13.3 µM (inactive) in assay [16]; 20.7 µM (inactive) in assay [4]; 21 µM (inactive) in assay [5]. The GI50 in assay [6] was 26 µM (inactive); in assay [7], 14.6 µM (inactive); in [8], 18.5 µM (inactive); in [9], 23.5 µM (inactive); in assay [10] it was 19.3 µM (inactive); in assay [11], 16.7 µM (inactive). Further, the GI50 in assay [12] was 18.3 µM (inactive); in [13], 13.4 µM (inactive); in [14] it was 27 µM (inactive); in [15] it was 27.7 µM (inactive).

Turning to `C/C(=N\NC(N)=O)c1sc(-c2nc(C)c(/C(C)=N/NC(N)=O)s2)nc1C`, the GI50 in [1] is > 10 µM (inactive); in [2], > 100 µM (inactive); in [3], > 100 µM (inactive); in assay [16] it was > 100 µM (inactive); in [4] it was > 100 µM (inactive); in assay [6], > 100 µM (inactive). Moreover, the GI50 in assay [7], in [8], in [9], in assay [10], in assay [11] and in [12] was > 100 µM (inactive) throughout. For the same compound, the results for the GI50 in [13], in [14] and in assay [15] were 40 µM (inactive), > 100 µM (inactive) and > 100 µM (inactive), respectively.

With `COC(=O)NC(=O)c1cn(C2CCCCC2)c(=O)[nH]c1=O`, the GI50 in assay [1], in assay [2], in [3], in [16], in assay [4] and in assay [5] was > 100 µM (inactive) throughout. In addition, the GI50 in assay [6], in assay [7], in assay [8], in assay [9], in [10] and in assay [11] was > 100 µM (inactive) throughout. In addition, the GI50 in assay [12], in [13], in assay [14] and in assay [15] was > 100 µM (inactive) throughout.

Turning to `CCOC(=O)c1oc2c(OC)cc(Cl)c3c2c1CCC3`, the GI50 in assay [1] is 44.3 µM (inactive); in [2], > 100 µM (inactive); in [3], > 100 µM (inactive); in assay [16], > 100 µM (inactive); in assay [4], > 100 µM (inactive); in [5], > 100 µM (inactive). The GI50 in assay [6] is 28.6 µM (inactive); in assay [7] it was > 100 µM (inactive); in assay [8], 24.2 µM (inactive); in assay [9] it was 13.6 µM (inactive); in assay [10] it was > 100 µM (inactive); in assay [11] it was 59.8 µM (inactive). The GI50 in assay [13] was > 100 µM (inactive); in assay [14] it was 58.3 µM (inactive); in assay [15] it was 38.6 µM (inactive).

On to `Cc1ccc(/C=N/C23CC4CC(CC(C4)C2)C3)cc1`, for which the GI50 in assay [1] is > 100 µM (inactive); in [2], > 100 µM (inactive); in assay [3], > 100 µM (inactive); in assay [16] it was 84.1 µM (inactive); in assay [4], 25.1 µM (inactive); in [5], > 100 µM (inactive). Besides, the GI50 in assay [7], in assay [8], in assay [9], in assay [10], in [11] and in assay [12] was > 100 µM (inactive) each time. Besides, the GI50 in assay [13], in assay [14] and in assay [15] was > 100 µM (inactive) in each case.

As to `O=C(O)CCNS(=O)(=O)c1ccc2ccccc2c1`, the GI50 in assay [2], in [3], in [16], in [4], in assay [5] and in assay [6] was > 100 µM (inactive) in each case. For the same compound, the GI50 in [7] is > 100 µM (inactive); in [8], > 10 µM (inactive); in [9] it was > 100 µM (inactive); in assay [10] it was > 100 µM (inactive); in assay [11] it was > 100 µM (inactive); in assay [13], > 100 µM (inactive). Further, the GI50 in assay [14] and in assay [15] was > 100 µM (inactive) each time.

The GI50 is the concentration that inhibits growth by half.
